Assays:
[1] = molecular target: T1, IRAK4 protein (Homo sapiens, UniProt Q9NWZ3); experiment: IRAK4 protein degradation in THP1 cells (Western blot); assay type: cell-based; conditions: 24 h
T1 construct: Effects of Compounds on IRAK4 Protein Degradation in THP1 Cells; endogenous in cells; host or cells: THP-1 cells
T1 sequence (Q9NWZ3 1-460): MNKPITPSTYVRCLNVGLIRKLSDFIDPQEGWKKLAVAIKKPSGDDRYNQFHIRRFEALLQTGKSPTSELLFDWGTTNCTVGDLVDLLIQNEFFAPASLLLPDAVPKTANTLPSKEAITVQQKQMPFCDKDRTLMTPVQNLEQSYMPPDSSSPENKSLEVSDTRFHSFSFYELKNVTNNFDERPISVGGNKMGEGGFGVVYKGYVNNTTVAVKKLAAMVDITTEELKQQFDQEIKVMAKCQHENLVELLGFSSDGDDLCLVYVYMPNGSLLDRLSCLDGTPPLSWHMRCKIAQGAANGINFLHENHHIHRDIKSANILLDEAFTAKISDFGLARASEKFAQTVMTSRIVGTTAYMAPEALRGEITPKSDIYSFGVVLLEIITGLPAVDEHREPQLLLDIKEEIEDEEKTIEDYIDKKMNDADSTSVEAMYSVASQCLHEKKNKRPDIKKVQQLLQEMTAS
Procedure: THP-1 cells were inoculated into a 96-well cell culture plate, with 5×10^4 cells and 100 μL of a culture medium per well. The cell culture plate was cultured in an incubator with 5% CO2 at 37° C. overnight. 100 nl of a well-prepared compound stock solution and a compound-free DMSO stock solution were respectively added to cells per well. The cell culture plate was incubated in an incubator with 5% CO2 at 37° C. for 24 h. One protease inhibitor tablet and one phosphatase inhibitor tablet were added to 20 mL of a cell lysis buffer, and they were gently mixed until complete dissolution. DTT at a final concentration of 200 mM was added to a 4× sample preparation buffer to prepare a 4× sample preparation working solution. 20× electrophoretic buffer was diluted to 1× with ultrapure water. 20× transfer buffer was diluted to 1× with ultrapure water, and 20% methanol was added. […] IRAK4 protein primary antibody working solution: 20 μl of IRAK4 antibody added to 20 mL of a blocking solution; β-Actin primary antibody working solution: 2 μl of beta-actin (13E5) Rabbit mAb antibody added to 20 mL of a blocking solution. IRAK4 protein secondary antibody working solution: Donkey Anti-Goat IgG H&L (HRP) diluted 1/5,000 in a blocking solution; 3-Actin secondary antibody working solution: Anti-rabbit IgG, RP-linked antibody diluted 1/10,000 in a blocking solution. The cell culture plate was centrifuged at 3,000 rpm for 3 min, and most of the culture medium was carefully pipetted. The cell plate was inverted, and centrifuged at 300 rpm for 30 s. 45 μL of a lysis buffer was added to each well. The mixture was shaken at 300 rpm for 30 s, allowed to stand on ice for 30 min, and pipetted 30 times at 20 min. 6 μL of 4× sample preparation working solution was added to 18 μL of protein supernatant for sample preparation, and the mixture was heated at 70° C. for 10 min. Remaining protein samples were stored at −80° C. In the precast gel, 8 μl of sample was loaded into each well for electrophoresis at a constant voltage of 120 V for about 60 min, transferred using a PVDF membrane at a constant current of 300 mA for 1 h, then blocked with a blocking solution at room temperature for 1 h, and incubated in a primary antibody working solution at 4° C. overnight. The membrane was washed with 1×TBST buffer for 3×10 min. The secondary antibody working solution was incubated at room temperature for 1 h. The membrane was washed with 1×TBST buffer for 3×10 min, and a chromogenic solution was used for exposure and color development.

[2] = tested on: IMQ-induced psoriasis model; experiment: IMQ-induced psoriasis model, skin thickening and ear thickening; assay type: in vivo, BALB/c mice; conditions: BID, gavage; for IMQ-induced psoriatic ear thickening, P compared with the Model group: FIG. 2
Procedure: Male BALB/c mice aged 6-8 weeks were randomly grouped into 15 groups or 6 groups after 1 week of adaptive feeding: control group, imiquimod model group (i.e., Model group), clobetasol propionate group (i.e., CLO group), the compounds of the present invention: TM-57 ICL-004192 (3 mg/kg, 10 mg/kg, 30 mg/kg), TM-109ICL-004240 (3 mg/kg, 10 mg/kg, 30 mg/kg, 60 mg/kg), TM-101ICL-004250 (3 mg/kg, 10 mg/kg, 30 mg/kg, 60 mg/kg), with 5 mice per group, and the Control group, the imiquimod model group (i.e., the Model group), and the clobetasol propionate group (i.e., the CLO group). On day 0, each of the mice was unhaired on the back using a hair removal cream, with a hair removal area of 2.5 cm×1.5 cm. On the first day, IMQ cream was used for modeling, and a corresponding drug was administered by gavage for treatment. The compounds of the present invention were administered by gavage at corresponding doses twice daily in the morning and evening with an interval of 8 h between two administrations. 2 h after the first gavage on a same day, the IMQ cream was applied to the to-be-unhaired site on the back and the left ear of each of the mice, with doses of the IMQ cream administered to the to-be-unhaired site on the back and the left ear being 62.5 mg and 7.5 mg, respectively. 5 h after the IMQ cream was applied to the to-be-unhaired area on the back and the left ear of each of the mice in the CLO group, clobetasol propionate cream was applied once daily. The blank group and the IMQ group were administrated with a vehicle twice daily in the morning and evening with an interval of 8 h between two administrations. […]
Referring to the Psoriasis Area and Severity Index (PASI) scoring criteria, the psoriasis, erythema, and thickness of skin lesions on the back were scored from 0 to 4 every morning from day 1 of modeling, with the scoring criteria as shown in Table 1. […] The ear thickness of the left ear of the mouse was measured using a digital vernier caliper three times every morning from day 1, to obtain a mean value.

| DC50 [1] [nM] | Compound | IMQ-induced psoriatic skin thickening, P compared with the Model group ([2]; 30 mg/kg, FIG. 1) | IMQ-induced psoriatic ear thickening, P compared with the Model group ([2]; 30 mg/kg) | IMQ-induced psoriatic ear thickening, P compared with the Model group ([2]; 60 mg/kg) |
| --- | --- | --- | --- | --- |
| 3.12 | Cc1nn(C2CCC(=O)NC2=O)c2cccc(N3CC4CN(C[C@H]5CC[C@H](n6cc7cc(NC(=O)c8cnn9cccnc89)c(N8CCOCC8)cc7n6)CC5)CC4C3)c12 (some centres unmarked) [TM-57] | < 0.01 | < 0.0001 | – |
| 4.67 | Cc1nn(C2CCC(=O)NC2=O)c2cncc(N3CCN(C[C@H]4CC[C@H](n5cc6cc(NC(=O)c7cnn8cccnc78)c(N7CCO[C@H](C)C7)cc6n5)CC4)CC3)c12 (some centres unmarked) [TM-109] | – | – | < 0.01 |

From patent US20260146044A1, “AROMATIC COMPOUND, PHARMACEUTICAL COMPOSITION CONTAINING SAME, AND USE THEREOF” (Increland, priority 2023, published 2026)
